What is called Ki is the dissociation constant of the complex between target and ligand, obtained from inhibition or displacement.

Read-outs that look alike come from different tables or passages of the source.

This passage reports Ki results from US9932338B2, “Compounds having muscarinic receptor antagonist and BETA2 adrenergic receptor agonist activity” (CHIESI FARMACEUTICI S.P.A., priority 2015, dated 2018).

The target in one assay is T1, Human M3 receptor (Homo sapiens, UniProt P20309).
T1 construct: purchased Perkin Elmer
Kind of assay: M3 receptor radioligand binding assay. The note with it: human M3 receptor membranes, [N-methyl-3H] scopolamine methyl chloride, Ki from IC50 by Cheng and Prusoff. The procedure: Example. M3 Receptor Radioligand Binding Assay
The assay was carried out in 96-well polypropylene plates in a volume of 250 ul. […] The final assay concentration of DMSO was 0.5% (v/v). The plates were sealed and incubated for 2 hours at room temperature on an orbital shaker (slow speed). Membranes were harvested onto 96-well unifilter GF/C filter plates pre-treated with 0.5% polyethyleneimine (v/v), using a filter manifold, washed four times with 200 μl of assay buffer. The plates were dried before addition of 50 μl of microscint-0, sealed then read in a Trilux Microbeta scintillation counter. IC50 values are determined from competition curves using a non-linear curve fitting program. Ki values were calculated from IC50 values by the Cheng and Prusoff equation.

Another assay deals with T2, Human β2 adrenoceptor (Homo sapiens, UniProt P07550).
T2 construct: purchased Perkin Elmer
Kind of assay: β2 adrenoceptor radioligand binding assay. As to conditions: human β2 adrenoceptor membranes, 125-I cyanopindolol, Ki from IC50 by Cheng and Prusoff. The procedure: Example. β2 Adrenoceptor Radioligand Binding Assay
Human β2 adrenoceptor membranes (7.5 ug/well) from Perkin Elmer were incubated with 0.3 nM 125-I Cyanopindolol with or without test compounds, or a saturating concentration of s-propranolol (2 μM) for the determination of non-specific binding. The assay was carried out in 96-well polypropylene plates in a volume of 200 ul. The assay buffer used was 25 mM HEPES, 0.5% BSA (w/v), 1 mM EDTA, 0.02% ascorbic acid (v/v), (pH 7.4). The final assay concentration of DMSO was 0.5% (v/v). The plates were sealed and incubated for 1 hour at room temperature on an orbital shaker (slow speed). Membranes were harvested onto 96-well unifilter GF/C filter plates pre-treated with 0.5% polyethyleneimine (v/v), using a filter manifold, washed six times with 200 μl of wash buffer containing 10 mM HEPES and 500 mM NaCl. The plates were dried before addition of 50 μl of microscint-0, sealed then read in a Trilux Microbeta scintillation counter. IC50 values are determined from competition curves using a non-linear curve fitting program. Ki values were calculated from IC50 values by the Cheng and Prusoff equation.

[1] abbreviates: read-out: M3 binding affinity (Ki class).
[2] abbreviates: read-out: B2 binding affinity (Ki class).

T1 sequence (P20309 whole entry): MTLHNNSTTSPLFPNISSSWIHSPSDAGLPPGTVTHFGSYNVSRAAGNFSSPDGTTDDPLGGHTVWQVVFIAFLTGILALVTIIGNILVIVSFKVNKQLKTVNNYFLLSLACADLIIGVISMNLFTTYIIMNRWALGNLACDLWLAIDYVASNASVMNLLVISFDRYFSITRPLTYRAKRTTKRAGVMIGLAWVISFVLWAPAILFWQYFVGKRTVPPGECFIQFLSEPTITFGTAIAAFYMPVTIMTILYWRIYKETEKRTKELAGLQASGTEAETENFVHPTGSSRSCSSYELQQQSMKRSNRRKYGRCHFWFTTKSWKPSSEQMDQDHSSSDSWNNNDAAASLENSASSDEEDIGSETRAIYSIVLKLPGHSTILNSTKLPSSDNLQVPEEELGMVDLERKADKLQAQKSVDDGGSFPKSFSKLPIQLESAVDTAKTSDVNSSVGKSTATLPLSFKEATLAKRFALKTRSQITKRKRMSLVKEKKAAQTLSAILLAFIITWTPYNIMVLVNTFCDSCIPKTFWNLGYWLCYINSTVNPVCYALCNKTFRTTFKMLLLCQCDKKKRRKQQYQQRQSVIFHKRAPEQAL
T2 sequence (P07550 whole entry): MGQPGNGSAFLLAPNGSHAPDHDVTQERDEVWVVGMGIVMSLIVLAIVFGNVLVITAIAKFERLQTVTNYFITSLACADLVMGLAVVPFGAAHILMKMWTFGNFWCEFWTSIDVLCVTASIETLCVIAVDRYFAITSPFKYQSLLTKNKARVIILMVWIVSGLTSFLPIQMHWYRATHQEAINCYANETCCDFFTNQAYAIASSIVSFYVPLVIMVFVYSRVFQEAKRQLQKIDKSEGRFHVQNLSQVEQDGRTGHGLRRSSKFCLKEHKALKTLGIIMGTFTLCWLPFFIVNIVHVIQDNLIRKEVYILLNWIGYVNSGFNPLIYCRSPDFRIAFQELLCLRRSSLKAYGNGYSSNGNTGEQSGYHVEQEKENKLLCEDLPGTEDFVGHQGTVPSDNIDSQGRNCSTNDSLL

Take `Cc1cccc2c1CCC2(NC(=O)c1cccc(OCCCCCNC[C@H](O)c2ccc(O)c3[nH]c(=O)ccc23)c1)C(=O)O[C@H]1CN2CCC1CC2` (single isomer, unassigned; diastereoisomer 1) [Compound 5A]: the Ki at Human M3 receptor (setting [1]) and on Human β2 adrenoceptor (setting [2]) was 1 to 10 nM throughout.

With `Cc1cccc2c1CCC2(NC(=O)c1cccc(OCCCCCNC[C@H](O)c2ccc(O)c3[nH]c(=O)ccc23)c1)C(=O)O[C@H]1CN2CCC1CC2` (single isomer, unassigned; diastereoisomer 2) [Compound 5B], the Ki at Human M3 receptor (setting [1]) and on Human β2 adrenoceptor (setting [2]) was less than 1 nM throughout.

In the case of `O=C(NCCCCNC[C@H](O)c1ccc(O)c2[nH]c(=O)ccc12)c1ccc(CNC2(C(=O)OCC3CCN(Cc4ccccc4)CC3)CCc3ccccc32)s1` (single isomer, unassigned; stereoisomer 1) [Compound 22], the values for the Ki on Human M3 receptor (setting [1]) and at Human β2 adrenoceptor (setting [2]) were less than 1 nM and 1 to 10 nM, respectively.

`O=C(NCCCCNC[C@H](O)c1ccc(O)c2[nH]c(=O)ccc12)c1ccc(CNC2(C(=O)OC3CCN(Cc4ccccc4)CC3)CCc3ccccc32)s1` (single isomer, unassigned; stereoisomer 1) [Compound 24]: the Ki on Human M3 receptor (setting [1]) is less than 1 nM; on Human β2 adrenoceptor (setting [2]), greater than 10 nM.

Turning to `O=C(NCCCCNC[C@H](O)c1ccc(O)c2[nH]c(=O)ccc12)c1ccc(CNC2(C(=O)O[C@@H]3CCCN(Cc4ccccc4)C3)CCc3ccccc32)s1` (single isomer, unassigned; stereoisomer 1) [Compound 25], the inhibition constant Ki at Human M3 receptor (setting [1]) was less than 1 nM; on Human β2 adrenoceptor (setting [2]), greater than 10 nM.

As for `O=C(NCCCCNC[C@H](O)c1ccc(O)c2[nH]c(=O)ccc12)c1ccc(CNC2(C(=O)O[C@@H]3CCN(Cc4ccccc4)C3)CCc3ccccc32)s1` (single isomer, unassigned; stereoisomer 1) [Compound 26], the Ki on Human M3 receptor (setting [1]) and on Human β2 adrenoceptor (setting [2]) was greater than 10 nM throughout.

`O=C(NCCCCNC[C@H](O)c1ccc(O)c2[nH]c(=O)ccc12)c1ccc(CNC2(C(=O)OCC3CCN(Cc4ccccc4)CC3)CCc3ccccc32)s1` (single isomer, unassigned; stereoisomer 2) [Compound 23]: the Ki was less than 1 nM on Human M3 receptor (setting [1]) and 1 to 10 nM at Human β2 adrenoceptor (setting [2]).

Take `O=C(NCCCCNC[C@H](O)c1ccc(O)c2[nH]c(=O)ccc12)c1ccc(CNC2(C(=O)OC3CCN(Cc4ccccc4)CC3)CCc3ccccc32)s1` (single isomer, unassigned; stereoisomer 2) [Compound 27]: the inhibitory constant (Ki) on Human M3 receptor (setting [1]) is less than 1 nM; on Human β2 adrenoceptor (setting [2]) it was greater than 10 nM.

For the molecule `O=C(NCCCCNC[C@H](O)c1ccc(O)c2[nH]c(=O)ccc12)c1ccc(CNC2(C(=O)O[C@@H]3CCN(Cc4ccccc4)C3)CCc3ccccc32)s1` (single isomer, unassigned; stereoisomer 2) [Compound 28], the values for the Ki on Human M3 receptor (setting [1]) and on Human β2 adrenoceptor (setting [2]) were less than 1 nM and 1 to 10 nM, respectively.

For the molecule `O=C(NCCCCNC[C@H](O)c1ccc(O)c2[nH]c(=O)ccc12)c1cccc(CNC2(C(=O)O[C@H]3CN4CCC3CC4)CCc3ccccc32)c1` (stereo partly drawn) [Compound 1, (R)-quinuclidin-3-yl 1-((3-((4-(((R)-2-hydroxy-2-(8-hydroxy-2-oxo-1,2-dihydroquinolin-5-yl)ethyl)amino)butyl)carbamoyl)benzyl)amino)-2,3-dihydro-1H-indene-1-carboxylate], the inhibitory constant (Ki) at Human M3 receptor (setting [1]) and at Human β2 adrenoceptor (setting [2]) was less than 1 nM throughout.

As for `O=C(NC1(C(=O)O[C@H]2CN3CCC2CC3)CCc2ccccc21)c1cccc(OCCCCCNC[C@H](O)c2ccc(O)c3[nH]c(=O)ccc23)c1` (stereo partly drawn) [Compound 2, (R)-quinuclidin-3-yl 1-(3-((5-(((R)-2-hydroxy-2-(8-hydroxy-2-oxo-1,2-dihydroquinolin-5-yl)ethyl)amino)pentyl)oxy)benzamido)-2,3-dihydro-1H-indene-1-carboxylate], the Ki at Human M3 receptor (M3 binding affinity (Ki class)) and on Human β2 adrenoceptor (B2 binding affinity (Ki class)) was less than 1 nM in each case.

Regarding `O=C(O[C@H]1CN2CCC1CC2)C1(NCc2cccc(OCCCCCNC[C@H](O)c3ccc(O)c4[nH]c(=O)ccc34)c2)CCc2ccccc21` (stereo partly drawn) [Compound 3, (R)-quinuclidin-3-yl 1-((3-((5-(((R)-2-hydroxy-2-(8-hydroxy-2-oxo-1,2-dihydroquinolin-5-yl)ethyl)amino)pentyl)oxy)benzyl)amino)-2,3-dihydro-1H-indene-1-carboxylate], the Ki on Human M3 receptor (setting [1]) and at Human β2 adrenoceptor (setting [2]) was less than 1 nM each time.

As to `O=C(NCCCCNC[C@H](O)c1ccc(O)c2[nH]c(=O)ccc12)c1ccc(CNC2(C(=O)O[C@H]3CN4CCC3CC4)CCc3ccccc32)s1` (stereo partly drawn) [Compound 4, (R)-quinuclidin-3-yl 1-(((5-((4-(((R)-2-hydroxy-2-(8-hydroxy-2-oxo-1,2-dihydroquinolin-5-yl)ethyl)amino)butyl)carbamoyl)thiophen-2-yl)methyl)amino)-2,3-dihydro-1H-indene-1-carboxylate], the Ki at Human M3 receptor (setting [1]) and on Human β2 adrenoceptor (setting [2]) was less than 1 nM in each case.

Turning to `Cc1cccc2c1CCC2(NCc1cccc(C(=O)NCCCCNC[C@H](O)c2ccc(O)c3[nH]c(=O)ccc23)c1)C(=O)O[C@H]1CN2CCC1CC2` (stereo partly drawn) [Compound 5, (R)-quinuclidin-3-yl 1-((3-((4-(((R)-2-hydroxy-2-(8-hydroxy-2-oxo-1,2-dihydroquinolin-5-yl)ethyl)amino)butyl)carbamoyl)benzyl)amino)-4-methyl-2,3-dihydro-1H-indene-1-carboxylate], the Ki at Human M3 receptor (setting [1]) and on Human β2 adrenoceptor (setting [2]) was less than 1 nM throughout.

With `O=C(NC1(C(=O)O[C@H]2CN3CCC2CC3)CCc2ccccc21)c1cccc(OCCCCNC[C@H](O)c2ccc(O)c3[nH]c(=O)ccc23)c1` (stereo partly drawn) [Compound 6, (R)-quinuclidin-3-yl 1-(3-(4-(((R)-2-hydroxy-2-(8-hydroxy-2-oxo-1,2-dihydroquinolin-5-yl)ethyl)amino)butoxy)benzamido)-2,3-dihydro-1H-indene-1-carboxylate], the Ki on Human M3 receptor (setting [1]) is less than 1 nM; on Human β2 adrenoceptor (setting [2]), 1 to 10 nM.

On to `CC(C)N1CCC(COC(=O)C2(NC(=O)c3cccc(OCCCCCCNC[C@H](O)c4ccc(O)c5[nH]c(=O)ccc45)c3)CCc3ccccc32)CC1` (stereo partly drawn) [Compound 7, (1-isopropylpiperidin-4-yl)methyl 1-(3-((6-(((R)-2-hydroxy-2-(8-hydroxy-2-oxo-1,2-dihydroquinolin-5-yl)ethyl)amino)hexyl)oxy)benzamido)-2,3-dihydro-1H-indene-1-carboxylate], for which the Ki on Human M3 receptor (setting [1]) was less than 1 nM; at Human β2 adrenoceptor (setting [2]), greater than 10 nM.

Consider `O=C(NCCCCNC[C@H](O)c1ccc(O)c2[nH]c(=O)ccc12)c1cccc(C(=O)NC2(C(=O)O[C@H]3CN4CCC3CC4)CCc3ccccc32)c1` (stereo partly drawn) [Compound 8, (R)-quinuclidin-3-yl 1-(3-((4-(((R)-2-hydroxy-2-(8-hydroxy-2-oxo-1,2-dihydroquinolin-5-yl)ethyl)amino)butyl)carbamoyl)benzamido)-2,3-dihydro-1H-indene-1-carboxylate], for which the Ki was 1 to 10 nM at Human M3 receptor (setting [1]) and greater than 10 nM at Human β2 adrenoceptor (setting [2]).

Turning to `O=C(NC1(C(=O)OCC2CCN(Cc3ccccc3)CC2)CCc2ccccc21)c1cccc(OCCCCCCNC[C@H](O)c2ccc(O)c3[nH]c(=O)ccc23)c1` (stereo partly drawn) [Compound 9, (1-benzylpiperidin-4-yl)methyl 1-(3-((6-(((R)-2-hydroxy-2-(8-hydroxy-2-oxo-1,2-dihydroquinolin-5-yl)ethyl)amino)hexyl)oxy)benzamido)-2,3-dihydro-1H-indene-1-carboxylate], the Ki on Human M3 receptor (setting [1]) is less than 1 nM; at Human β2 adrenoceptor (setting [2]) it was greater than 10 nM.
